Measurements taken from US20100267561A1, “HERBICIDAL PYRIDAZINONE DERIVATIVES” (priority 2007, published 2010).

Tests used:
Assay type in all cases: in vivo
[1] = test system: barnyardgrass (Echinochloa crus-galli); experiment: Test B flooded paddy test plant response; details: Flood (flooded paddy test), scale 0 to 100, 0 no effect, 100 complete control
Summary of the method: (§1)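 Step one: raise plants to 2 leaves. Step two: flood pots 3 cm over the soil and apply compound into the water, keeping this depth. Step three: after 13–15 greenhouse days, score visually versus controls, 0–100, where 100 means complete control.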

[2] = test system: ducksalad (Heteranthera limosa); experiment: Test B flooded paddy test plant response; details: Flood (flooded paddy test), scale 0 to 100, 0 no effect, 100 complete control
Summary of the method: as §1

[3] = test system: umbrella sedge (Cyperus difformis); experiment: Test B flooded paddy test plant response; details: Flood (flooded paddy test), scale 0 to 100, 0 no effect, 100 complete control
Summary of the method: as §1

[4] = test system: chickweed (Stellaria media); experiment: Test B postemergence plant response; details: for Plant response rating, Chickweed: Postemergence
Summary of the method: (§2)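 Visual injury ratings on a 0–100 scale, where 100 means complete control, were made 13 to 15 days after postemergence treatment of greenhouse-grown plants at the 1- to 4-leaf stage.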

[5] = test system: winter barley (Hordeum vulgare); experiment: Test B postemergence plant response; details: for Plant response rating, Barley: Postemergence, scale 0 to 100, 0 no effect, 100 complete control
Summary of the method: as §2

[6] = test system: canarygrass (Phalaris minor); experiment: Test B postemergence plant response; details: for Plant response rating, Canarygrass: Postemergence
Summary of the method: as §2

[7] = test system: windgrass (Apera spica-venti); experiment: Test B postemergence plant response; details: for Plant response rating, Windgrass: Postemergence
Summary of the method: as §2

[8] = test system: barnyardgrass (Echinochloa crus-galli); experiment: Test A pre-/postemergence plant response
Summary of the method: (§3)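 Greenhouse pot test: loam–sand soil; pre- and postemergence sprays applied same day; post plants 2–10 cm, 1–2 leaves. Readout ~10 d, visual % injury vs untreated (0 = none, 100 = complete control).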

[9] = test system: morningglory (Ipomoea coccinea); experiment: Test A pre-/postemergence plant response
Summary of the method: as §3

[10] = test system: large crabgrass (Digitaria sanguinalis); experiment: Test A pre-/postemergence plant response
Summary of the method: as §3

[11] = test system: velvetleaf (Abutilon theophrasti); experiment: Test A pre-/postemergence plant response
Summary of the method: as §3

[12] = test system: giant foxtail (Setaria faberi); experiment: Test A pre-/postemergence plant response
Summary of the method: as §3

[13] = test system: wheat (Triticum aestivum); experiment: Test A pre-/postemergence plant response
Summary of the method: as §3

[14] = test system: pigweed (Amaranthus retroflexus); experiment: Test A pre-/postemergence plant response
Summary of the method: as §3

[15] = 8 g ai/ha, postemergence, 0-100 scale
[16] = 62 g ai/ha, scale 0 to 100, 0 no effect, 100 complete control
[17] = Postemergence, 31 g ai/ha, 0 to 100 scale, 0 no effect, 100 complete control
[18] = Postemergence, 125 g ai/ha, 0 to 100 scale, 0 no effect, 100 complete control
[19] = Preemergence, 31 g ai/ha, 0 to 100 scale, 0 is no effect, 100 is complete control
[20] = Preemergence, 125 g ai/ha, 0 to 100 scale (0 no effect, 100 complete control)

Cc1nn(C)c(=O)c(-n2nc(-c3ccc(Cl)cc3)cc2Cl)c1O [Compound 59]
Plant response rating, Barnyardgrass ([1]; 62 g ai/ha): 0 | Plant response rating, Barnyardgrass ([1]; 250 g ai/ha): 50 | Plant response rating, Ducksalad ([2]; 62 g ai/ha): 0 | Plant response rating, Ducksalad ([2]; 250 g ai/ha): 20 | Plant response rating, Sedge, Umbrella ([3]; 62 g ai/ha): 0 | Plant response rating, Sedge, Umbrella ([3]; 250 g ai/ha): 30 | Chickweed plant response rating [4, 15]: 0 | Plant response rating, Chickweed ([4]; 16 g ai/ha, scale 0 to 100): 0 | Plant response rating, Chickweed ([4]; 31 g ai/ha, scale 0 to 100): 0 | Plant response rating, Chickweed [4, 16]: 0 | Barley plant response rating [5, 15]: 0 | Plant response rating, Barley ([5]; 16 g ai/ha): 0 | Plant response rating, Barley ([5]; 31 g ai/ha): 20 | Plant response rating, Barley ([5]; 62 g ai/ha): 50 | Canarygrass plant response rating [6, 15]: 0 | Plant response rating, Canarygrass ([6]; 16 g ai/ha, scale 0 to 100): 40 | Plant response rating, Canarygrass ([6]; 31 g ai/ha, scale 0 to 100): 55 | Plant response rating, Canarygrass [6, 16]: 70 | Windgrass plant response rating [7, 15]: 0 | Plant response rating, Windgrass ([7]; 16 g ai/ha, scale 0 to 100): 0 | Plant response rating, Windgrass ([7]; 31 g ai/ha, scale 0 to 100): 10 | Plant response rating, Windgrass [7, 16]: 50 | Plant response rating, Barnyardgrass [8, 17]: 90 | Plant response rating, Barnyardgrass [8, 18]: 100 | Plant response rating, Barnyardgrass [8, 19]: 90 | Plant response rating, Barnyardgrass [8, 20]: 100 | Plant response rating, Morningglory [9, 17]: 0 | Plant response rating, Morningglory [9, 18]: 0 | Plant response rating, Morningglory [9, 19]: 0 | Plant response rating, Morningglory [9, 20]: 0 | Plant response rating, Crabgrass, Large [10, 17]: 50 | Plant response rating, Crabgrass, Large [10, 18]: 90 | Plant response rating, Crabgrass, Large [10, 19]: 20 | Plant response rating, Crabgrass, Large [10, 20]: 50 | Plant response rating, Velvetleaf [11, 17]: 0 | Plant response rating, Velvetleaf [11, 18]: 0 | Plant response rating, Velvetleaf [11, 19]: 0 | Plant response rating, Velvetleaf [11, 20]: 0 | Plant response rating, Foxtail, Giant [12, 17]: 90 | Plant response rating, Foxtail, Giant [12, 18]: 90 | Plant response rating, Foxtail, Giant [12, 19]: 70 | Plant response rating, Foxtail, Giant [12, 20]: 90 | Plant response rating, Wheat [13, 17]: 0 | Plant response rating, Wheat [13, 18]: 60 | Plant response rating, Wheat [13, 19]: 0 | Plant response rating, Wheat [13, 20]: 50 | Plant response rating, Pigweed [14, 17]: 0 | Plant response rating, Pigweed [14, 18]: 0 | Plant response rating, Pigweed [14, 19]: 0 | Plant response rating, Pigweed [14, 20]: 0
